# Test results published in patent US20260042763A1, “PE[…] POSITIVE […] THE TREATMENT OF IRRITABLE BOWEL SYNDROME AND OTHER AILMENTS OF THE PERIPHERAL NERVOUS SYSTEM” (The Johns Hopkins University, priority 2022, published 2026).
# Where two headings read alike, the source gives them in different places.
# Target: T1, human isoforms of GABAA (α3ß2γ2) receptors (Homo sapiens, UniProt P18507+P34903)
# T1 construct: expressed in transfected cells
# Test: Potentiation of GABA-evoked currents at GABAA (α3β2γ2) receptors, automated patch-clamp (QPatch), Example B1
# Type: cell-based
# Settings: for Emax: Emax of potentiation, read-out: Max %
# Method: The ability of compounds exemplified above to potentiate the effect of GABA on GABAA receptors (α3β2γ2) was determined using one or more of the methods described below.
# Ltk cells stably expressing the human isoforms of GABAA (α3ß2γ2) receptors were used together with submaximal GABA concentrations to investigate the modulatory effects of the test items. Cells were incubated at 37° C. in a humidified atmosphere with 5% CO2 (rel. humidity about 95%). The cells were continuously maintained in and passaged in sterile culture flasks containing a 1:1 mixture of Dulbecco's modified eagle medium and nutrient mixture D-MEM/F-12 (1×, liquid, with L-Glutamine), supplemented with 10% fetal bovine serum and 1.0% Penicillin/Streptomycin solution. The complete medium as indicated above was supplemented with neomycin. In general, cells were passaged at a confluence of about 80 to 90%. For electrophysiological measurements cells were harvested at a confluence of about 80 to 90% from sterile culture flasks containing culture complete medium. Cells were transferred as suspension in PBS to the QPatch 16X or QPatch HTX system to the centrifuge/washer directly. Expression of GABA receptor was induced by adding Dexamethasone to the cells for 24 to 48 h before experimentation.
# Modulatory effects of the compounds of this disclosure were investigated using cells stably transfected with GABA-activated channels of the GABAA (α3ß2γ2) subtype together with submaximal GABA concentrations. Expression of GABA receptor were induced by adding Dexamethasone to the cells for 24 to 48 h before experimentation. In general, cells were passaged at a confluence of about 80 to 90%. For electrophysiological measurements cells were harvested at a confluence of about 80 to 90% from sterile culture flasks containing culture complete medium. Cells were transferred as suspension in PBS to the QPatch 16X or QPatch HTX system to the centrifuge/washer directly. Cells were incubated at 37° C. in a humidified atmosphere with 5% CO2 (rel. humidity about 95%). The cells were continuously maintained in and passaged in sterile culture flasks containing a 1:1 mixture of Dulbecco's modified eagle medium and nutrient mixture D-MEM/F-12 (1×, liquid, with L-Glutamine), supplemented with 10% foetal bovine serum and 1.0% Penicillin/Streptomycin solution and neomycin. The 1× bath solution was made at least every 5 days out of a sterile 10× bath solution, which had been prepared prior to the experimental start of the present study and stored at 1° C. to 9° C. The final bath solution included Sodium Chloride 137 mM, Potassium Chloride 4 mM, Calcium Chloride 1.8 mM, Magnesium Chloride 1 mM, HEPES 10 mM, D-Glucose 10 mM, pH (NaOH) 7.4. The 1× intracellular solution was thawed every day and includes Potassium Chloride 130 mM, Magnesium Chloride 1 mM, Mg-ATP 5 mM, HEPES 10 mM, EGTA 5 Mm, pH (KOH) 7.2. Automated patch-clamping: Cells were transferred as suspension in serum-free medium to the QPatch HTX system and kept in the cell storage tank during experiments. All solutions applied to cells including the intracellular solution were maintained at room temperature (19° C. to 30° C.). After formation of a Gigaohm seal between the patch electrodes and transfected individual Ltk cells were ruptured to assure electrical access to the cell interior (whole-cell patch-configuration). Inward currents were measured upon application of 2.0 μM GABA to patch-clamped cells for 4 s. During the entire experiment the cells were voltage-clamped at a holding potential of −80 mV. For the analysis of test items, GABAA receptors were stimulated by 2.0 μM GABA and test item combinations described below. Thirty-second prewash steps with test items was performed in between two agonist applications. […]
# [1] = Ltk cells expressing GABAA α3β2γ2, 2.0 μM GABA, whole-cell, holding potential −80 mV
# T1 sequence (P34903 29-492): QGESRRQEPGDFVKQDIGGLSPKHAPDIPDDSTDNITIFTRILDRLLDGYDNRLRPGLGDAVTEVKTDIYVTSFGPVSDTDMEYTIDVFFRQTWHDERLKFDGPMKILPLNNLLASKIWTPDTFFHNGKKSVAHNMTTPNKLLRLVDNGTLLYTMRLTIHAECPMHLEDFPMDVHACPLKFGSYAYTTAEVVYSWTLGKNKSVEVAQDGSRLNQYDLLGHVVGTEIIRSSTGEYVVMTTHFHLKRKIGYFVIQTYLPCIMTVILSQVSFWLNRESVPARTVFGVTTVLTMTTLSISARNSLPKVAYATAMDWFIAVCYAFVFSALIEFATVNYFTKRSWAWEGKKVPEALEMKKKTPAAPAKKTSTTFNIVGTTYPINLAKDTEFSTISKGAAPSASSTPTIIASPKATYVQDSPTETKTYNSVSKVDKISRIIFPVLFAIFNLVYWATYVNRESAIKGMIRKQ
# T1 sequence (P47870 25-512 partner limits assumed): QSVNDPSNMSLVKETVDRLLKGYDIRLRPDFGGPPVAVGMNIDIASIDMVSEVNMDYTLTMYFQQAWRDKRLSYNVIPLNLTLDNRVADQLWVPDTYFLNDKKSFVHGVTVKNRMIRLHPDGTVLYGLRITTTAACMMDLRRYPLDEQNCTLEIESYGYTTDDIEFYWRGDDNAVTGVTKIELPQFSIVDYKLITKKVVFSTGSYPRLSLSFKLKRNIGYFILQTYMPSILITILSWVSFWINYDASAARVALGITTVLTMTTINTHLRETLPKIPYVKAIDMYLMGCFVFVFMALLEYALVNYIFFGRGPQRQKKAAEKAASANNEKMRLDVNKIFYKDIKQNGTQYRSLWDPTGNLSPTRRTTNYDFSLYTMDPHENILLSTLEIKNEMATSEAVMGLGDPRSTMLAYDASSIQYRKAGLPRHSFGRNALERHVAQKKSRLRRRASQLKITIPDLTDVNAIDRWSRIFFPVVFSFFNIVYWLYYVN
# T1 sequence (P18507 40-475): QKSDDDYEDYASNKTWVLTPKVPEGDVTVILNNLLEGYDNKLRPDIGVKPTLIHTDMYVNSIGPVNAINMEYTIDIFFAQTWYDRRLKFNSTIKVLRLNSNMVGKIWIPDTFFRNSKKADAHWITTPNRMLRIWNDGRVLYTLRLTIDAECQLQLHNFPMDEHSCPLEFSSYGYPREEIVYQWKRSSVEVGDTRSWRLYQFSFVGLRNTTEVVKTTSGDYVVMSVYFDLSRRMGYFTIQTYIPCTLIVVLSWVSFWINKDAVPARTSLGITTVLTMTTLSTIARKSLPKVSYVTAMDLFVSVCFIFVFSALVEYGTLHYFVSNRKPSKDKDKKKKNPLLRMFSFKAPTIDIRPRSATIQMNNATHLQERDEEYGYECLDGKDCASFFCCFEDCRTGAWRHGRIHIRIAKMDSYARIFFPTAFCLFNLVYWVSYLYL
SMILES,EC50 [nM],Emax [1] [%],"EC50 (Ltk cells expressing GABAA α3β2γ2, 2.0 μM GABA, whole-cell, holding potential −80 mV, read-out: EC50) [nM]"
"Cc1ccc2c(c1)C(c1ccccc1F)=NCc1nc(C(=O)O)cn1-2 [Compound 226, 6-(2-fluorophenyl)-8-methyl-4H-imidazo[1,2-a][1,4]benzodiazepine-2-carboxylic acid]",< 50,> 100,
"O=C(O)c1cn2c(n1)C(O)N=C(c1ccccc1F)c1cc(Cl)ccc1-2 (centres unmarked) [Compound 227, 8-chloro-6-(2-fluorophenyl)-4-hydroxy-4H-benzo[f]imidazo[1,2-a][1,4]diazepine-2-carboxylic acid]",,50 to 100,
"CN(C)CCNC(=O)c1cn2c(n1)CN=C(c1ccccc1F)c1cc(Cl)ccc1-2 [Compound 228, 8-chloro-N-[2-(dimethylamino)ethyl]-6-(2-fluorophenyl)-4H-imidazo[1,2-a][1,4]benzodiazepine-2-carboxamide]",< 50,50 to 100,
"COCCOCCOCCOCCOCCOCCOCCOCCNC(=O)c1cn2c(n1)CN=C(c1ccccc1F)c1cc(Cl)ccc1-2 [Compound 229, 8-chloro-6-(2-fluorophenyl)-N-[2-[2-[2-[2-[2-[2-[2-(2-methoxyethoxy)ethoxy]ethoxy]ethoxy]ethoxy]ethoxy]ethoxy]ethyl]-4H-imidazo[1,2-a][1,4]benzodiazepine-2-carboxamide]",> 100,> 100,
"NC(=O)[C@H](O)c1cn2c(n1)CN=C(c1ccccc1F)c1cc(Cl)ccc1-2 [Compound 231, (2R)-2-[12-chloro-9-(2-fluorophenyl)-2,5,8-triazatricyclo[8.4.0.0^2,6]tetradeca-1 (10),3,5,8,11,13-hexaen-4-yl]-2-hydroxyacetamide]",< 50,> 100,
"NC(=O)C(NCc1ccccc1)c1cn2c(n1)CN=C(c1ccccc1F)c1cc(Cl)ccc1-2 (centres unmarked) [Compound 232, 2-(Benzylamino)-2-[12-chloro-9-(2-fluorophenyl)-2,5,8-triazatricyclo[8.4.0.0^2,6]tetradeca-1 (10),3,5,8,11,13-hexaen-4-yl]acetamide]",50 to 100,50 to 100,
"O=C(O)Cc1cn2c(n1)CN=C(c1ccccc1F)c1cc(Cl)ccc1-2 [Compound 233, 2-(8-chloro-6-(2-fluorophenyl)-4H-benzo[f]imidazo[1,2-a][1,4]diazepin-2-yl) acetic acid]",< 50,> 100,
"O=C(O[C@@H]1O[C@H](C(=O)O)[C@@H](O)[C@H](O)[C@H]1O)c1cn2c(n1)CN=C(c1ccccc1F)c1cc(Cl)ccc1-2 [Compound 234, (2S,3S,4S,5R,6S)-6-((8-chloro-6-(2-fluorophenyl)-4H-benzo[f]imidazo[1,2-a][1,4]diazepine-2-carbonyl)oxy)-3,4,5-trihydroxytetrahydro-2H-pyran-2-carboxylic acid]",,50 to 100,< 50
O=C(O)c1nc2n(c1Cl)-c1ccc(Cl)cc1C(c1ccccc1F)=NC2 [Compound 235],< 50,> 100,
"O=C(O)c1cn2c(n1)C[N+]([O-])=C(c1ccccc1F)c1cc(Cl)ccc1-2 [Compound 236, 2-carboxy-8-chloro-6-(2-fluorophenyl)-4H-514-benzo[e]imidazo[2,1-c][1,4]diazepin-5-olate]",> 100,50 to 100,
"NC(=O)c1cn2c(n1)CN=C(c1ccccc1F)c1cc(Cl)ccc1-2 [Compound 238, 8-chloro-6-(2-fluorophenyl)-4H-imidazo[1,2-a][1,4] benzodiazepine-2-carboxamide]",< 50,> 100,
"O=C(O)c1nc2n(c1-c1ccccc1)-c1ccc(Cl)cc1C(c1ccccc1F)=NC2 [Compound 239, 8-chloro-6-(2-fluorophenyl)-1-phenyl-4H-imidazo[1,2-a][1,4]benzodiaze pine-2-carboxylic acid]",> 100,> 100,
"CNC(=O)c1cn2c(n1)CN=C(c1ccccc1F)c1cc(Cl)ccc1-2 [Compound 240, 8-chloro-6-(2-fluorophenyl)-N-methyl-4H-imidazo[1,2-a][1,4]benzodiazepine-2-carboxamide]",< 50,> 100,
"CN(C)C(=O)c1cn2c(n1)CN=C(c1ccccc1F)c1cc(Cl)ccc1-2 [Compound 241, 8-chloro-6-(2-fluorophenyl)-N,N-dimethyl-4H-imidazo[1,2-a][1,4]benzodiazepine-2-carboxamide]",< 50,> 100,
"O=C(O)c1nc2n(c1CN1CCC1)-c1ccc(Cl)cc1C(c1ccccc1F)=NC2 [Compound 243, 1-(azetidin-1-ylmethyl)-8-chloro-6-(2-fluorophenyl)-4H-benzo[f]imidazo[1,2-a][1,4]diazepine-2-carboxylic acid]",> 100,> 100,
"O=C(O)c1nc2n(c1CNC1CCCCC1)-c1ccc(Cl)cc1C(c1ccccc1F)=NC2 [Compound 244, 8-chloro-1-((cyclohexylamino)methyl)-6-(2-fluorophenyl)-4H-benzo[f]imidazo[1,2-a][1,4]diazepine-2-carboxylic acid]",> 100,> 100,
"O=C(O)c1nc2n(c1CN1CCOCC1)-c1ccc(Cl)cc1C(c1ccccc1F)=NC2 [Compound 245, 8-chloro-6-(2-fluorophenyl)-1-(morpholinomethyl)-4H-benzo[f]imidazo[1,2-a] [1,4]diazepine-2-carboxylic acid]",> 100,> 100,
"O=C(O)c1nc2n(c1CN1CCCCC1)-c1ccc(Cl)cc1C(c1ccccc1F)=NC2 [Compound 246, 8-chloro-6-(2-fluorophenyl)-1-(piperidin-1-ylmethyl)-4H-benzo[f]imidazo[1,2-a][1,4]diazepine-2-carboxylic acid]",> 100,50 to 100,
"O=C(O)c1nc2n(c1CN1CCCC1)-c1ccc(Cl)cc1C(c1ccccc1F)=NC2 [Compound 247, 8-chloro-6-(2-fluorophenyl)-1-(pyrrolidin-1-ylmethyl)-4H-benzo[f]imidazo[1,2-a][1,4]diazepine-2-carboxylic acid]",> 100,50 to 100,
"Nc1c(C(=O)O)nc2n1-c1ccc(Cl)cc1C(c1ccccc1F)=NC2 [Compound 249, 3-Amino-12-chloro-9-(2-fluorophenyl)-2,5,8-triazatricyclo[8.4.0.0^2,6]tetradeca-1 (10),3,5,8,11,13-hexaene-4-carboxylic acid]",,> 100,
